Read-outs that look alike come from different tables or passages of the source.
Target: rat α3/β4 nAChR (Rattus norvegicus, UniProt P04757+P12392)
Details: 60 pM [3H]-EB; for retention volume of [3H]-EB: 9.5 ml without competitor
Method: The cultured cells in which rat α3/β4 subtype of neural nicotinic acetylcholine receptor (nAChR) were expressed by transfected cell line KXα3β4R2 were harvested in 30 ml of Tris-HCl buffer (50 mM, pH 7.4) and homogenized for 20 minutes with a Brinkman Polytron homogenizer. The homogenates were centrifuged at 35,000×g for 10 minutes and the supernatant was discarded. The resulting pellets were suspended in 6 ml of 2% cholate in Tris-HCl buffer (50 mM, pH 7.4) and stirred for two hours in an ice bath. After centrifugation at 35,000×g, the supernatant was collected for the immobilization. IAM packing materials (200 mg) were washed three times by centrifugation with Tris-HCl buffer (50 mM, pH 7.4). The IAM materials were suspended in 4 ml of receptor-detergent solution, stirred for one hour at room temperature and dialyzed against 2×1 L buffer for 24 hours at 4° C. When detergents were depleted from the mixture, the receptors were hydrophobically entrapped in the phospholipid monolayer on the surface of IAM materials. The receptor-IAM materials were washed with buffer by centrifugation at 4000×g.
The NR(α4β2)-IAM packing materials were packed in an HR glass column (Pharmacia Biotech) and connected with an HPLC pump. […] The elution profile was monitored by an on-line radioactivity HPLC detector.
The resulting column was used in the LC study of drug-NR binding using frontal chromatographic techniques with [^3H]-epibatidine (EB) as the marker ligand. A series of [^3H]-EB concentrations ranging from 60 pM to 600 pM were pumped through the (α3/β4)NR-IAM column2 to obtain elution profiles showing front and plateau regions. The concentration of the [^3H]-EB in the column eluent was monitored by an LC on-line radioactivity detector.
The binding of the [^3H]-EB on the (α3/β4)NR-IAM column was be altered by the addition of competitive NR-ligands to the mobile phase.

rat α3/β4 nAChR, sequence (P04757 26-499): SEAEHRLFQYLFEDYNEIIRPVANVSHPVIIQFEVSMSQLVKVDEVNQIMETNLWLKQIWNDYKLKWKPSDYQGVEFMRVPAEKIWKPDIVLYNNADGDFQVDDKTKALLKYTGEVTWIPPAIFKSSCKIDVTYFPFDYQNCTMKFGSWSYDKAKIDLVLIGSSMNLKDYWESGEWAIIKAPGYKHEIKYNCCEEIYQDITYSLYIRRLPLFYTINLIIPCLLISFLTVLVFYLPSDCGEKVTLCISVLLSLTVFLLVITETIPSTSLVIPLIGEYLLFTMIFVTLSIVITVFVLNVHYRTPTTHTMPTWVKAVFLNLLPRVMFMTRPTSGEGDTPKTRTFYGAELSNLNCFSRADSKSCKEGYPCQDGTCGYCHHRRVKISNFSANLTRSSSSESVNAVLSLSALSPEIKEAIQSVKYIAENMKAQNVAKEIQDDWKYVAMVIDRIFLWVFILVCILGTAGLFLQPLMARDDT
rat α3/β4 nAChR, sequence (P12392 22-495 limits assumed): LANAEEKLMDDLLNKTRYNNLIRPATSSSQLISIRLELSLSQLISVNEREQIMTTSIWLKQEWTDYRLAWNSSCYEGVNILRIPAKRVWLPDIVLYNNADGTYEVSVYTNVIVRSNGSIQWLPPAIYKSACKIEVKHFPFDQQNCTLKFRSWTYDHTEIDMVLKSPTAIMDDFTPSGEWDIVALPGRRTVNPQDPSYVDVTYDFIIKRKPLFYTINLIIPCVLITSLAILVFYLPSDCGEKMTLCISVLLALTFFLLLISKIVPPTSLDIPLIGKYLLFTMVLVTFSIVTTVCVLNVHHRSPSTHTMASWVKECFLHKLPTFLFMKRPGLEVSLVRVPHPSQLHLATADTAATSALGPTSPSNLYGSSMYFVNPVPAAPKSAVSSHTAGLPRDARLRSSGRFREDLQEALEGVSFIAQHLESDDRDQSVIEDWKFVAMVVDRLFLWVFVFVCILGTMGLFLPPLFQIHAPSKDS

SMILES	mobile phase concentration required to decrease the retention volume of [3H]-EB from 9.5 ml to 6 ml [µM]	retention volume of [3H]-EB (10 nM A85380 in mobile phase) [mL]	retention volume of [3H]-EB (100 nM A85380 in mobile phase) [mL]
CN1CCCC1c1cccnc1 (stereo not drawn) [nicotine]	0.045	–	–
c1cncc(OC[C@@H]2CCN2)c1 [A85380]	17000	6.6	1.9
C[N+](C)(C)CCOC(N)=O [carbachol]	1.3	–	–
Clc1ccc(C2CC3CCC2N3)cn1 (racemic) [(±)-EB, epibatidine]	0.00012	–	–

Source: patent US6387268B1 (priority 1998, dated 2002)
